Each block holds one molecule with its values, some of them ahead of it.
Assays:
Jurkat = assay: Apoptosis of cell lines: Jurkat; type: cell-based; settings: 21 hrs, 500 nM
Source text: (§1) The following cell lines representing various leukaemia's and lymphoma's, as classified by ATCC (www.atcc.org/), were used: Jurkat—acute T-cell leukaemia; CCRF-SB—B-cell acute lymphoblastic leukaemia; MC116—B-cell undifferentiated lymphoma; Raji, Ramos—Burkitt lymphoma (rare form of B-cell non-Hodgkin lymphoma); SU-DHL-4, SU-DHL-5, SU-DHL-8, NU-DUL-1, OCI-Ly3—Diffuse large B-cell lymphoma; THP-1—acute monocytic leukaemia; and Dakiki—B cell nasopharyngeal carcinoma.
(§2) Prior to an assay being performed, 1 vial of each of the above cell lines was thawed in a 37° C. water bath and then added to 20 ml complete media (RPMI 1640+2 mM GlutaMAX+1% Pen/Strep, all previous supplied by Invitrogen, +10% Fetal Bovine Serum (FBS), Sigma Aldrich). Cells were spun (500 g, 5 min, at RT) and re-suspended in 20 ml complete media to wash and spun again. Cells were resuspended in 10 ml complete media and then counted using a ChemoMetec NucleoCounter NC-3000. 6×10^6 cells of each cell line were spun (500 g, 5 min, at RT) and re-suspended in 4.8 ml complete media. 1×10^5 cells in 80 μl were then added to each well of a Corning Costar 96-well, cell culture treated, U-shaped-bottom microplate (cat no. 07-200-95). The plate was rested in a 37° C., 5% CO2 incubator for 2 hrs
(§3) Stocks of 4133-6294 BYbe and NegCtrl BYbe at 2500 nM in complete media were prepared. In a Greiner 96-well non-binding microplate, both reagents were serially diluted in complete media 1 in 5, seven times to produce to form an 8-point dose curve. […] (final well concentrations 500-0.0064 nM) was added to the cells. Each concentration was produced in triplicate. Camptothecin (cat no. C9911-100MG, Sigma Aldrich) and Staurosporine (cat no. 56942-200UL, Sigma Aldrich) were added as positive controls of apoptosis. Both were diluted in complete media and added to the well to produce a final concentration of 5 μM. Additional positive controls included anti-thymocyte globulin (ATG, indicated by FDA for use in conditioning regimens), Rituximab (anti-CD20, indicated by FDA for Non-Hodgkin Lymphoma and Chronic Lymphocytic Leukaemia) and Campath (anti-CD52, indicated by FDA for B-cell Chronic Lymphocytic Leukaemia). Anti-thymocyte globulin, Rituximab and Campath were added to the wells to produce final concentrations of 200 μg/ml, 500 nM and 200 μg/ml, respectively. […]
(§4) Following the incubation, the plates were spun at 500 g, 5 min, RT, the buffer was aspirated with a BioTek ELx405 microplate washer, and the cells were re-suspended in FACS buffer (PBS+1% bovine serum albumin (BSA)+0.1% NaN3+2 mM EDTA, Sigma Aldrich) to wash and then re-spun and buffer was aspirated to leave the cells in 20 μl residual media. […] Cells were analysed using the Bio-Rad ZE5 Cell Analyzer. […]

CCRF-SB = assay: Apoptosis of cell lines: CCRF-SB; type: cell-based; settings: 21 hrs, 500 nM
Source text: as §1, §2, §3, §4

MC116 = assay: Apoptosis of cell lines: MC116; type: cell-based; settings: MC116, 21 hrs, 500 nM
Source text: as §1, §2, §3, §4

Raji = assay: Apoptosis of cell lines: Raji; type: cell-based; settings: 21 hrs, 500 nM
Source text: as §1, §2, §3, §4

Ramos = assay: Apoptosis of cell lines: Ramos; type: cell-based; settings: 21 hrs, 500 nM
Source text: as §1, §2, §3, §4

SU-DHL-4 = assay: Apoptosis of cell lines: SU-DHL-4; type: cell-based; settings: SU-DHL-4, 21 hrs, 500 nM
Source text: as §1, §2, §3, §4

SU-DHL-5 = assay: Apoptosis of cell lines: SU-DHL-5; type: cell-based; settings: SU-DHL-5, 21 hrs, 500 nM
Source text: as §1, §2, §3, §4

SU-DHL-8 = assay: Apoptosis of cell lines: SU-DHL-8; type: cell-based; settings: SU-DHL-8, 21 hrs, 500 nM
Source text: as §1, §2, §3, §4

NU-DUL-1 = assay: Apoptosis of cell lines: NU-DUL-1; type: cell-based; settings: NU-DUL-1, 21 hrs, 500 nM
Source text: as §1, §2, §3, §4

OCI-Ly3 = assay: Apoptosis of cell lines: OCI-Ly3; type: cell-based; settings: OCI-Ly3, 21 hrs, 500 nM
Source text: as §1, §2, §3, §4

THP-1 = assay: Apoptosis of cell lines: THP-1; type: cell-based; settings: THP-1, 21 hrs, 500 nM
Source text: as §1, §2, §3, §4

Dakiki = assay: Apoptosis of cell lines: Dakiki; type: cell-based; settings: 21 hrs, 500 nM
Source text: as §1, §2, §3, §4

[1] = molecular target: T1, CD45 domains 1-4 of the extracellular domain (UniProtKB P08575, residues 225-573) with C-terminal TEV cleavage site and 10-His tag (human); assay: SPR, Biacore 3000, 25 C; Fab captured by anti-rabbit F(ab)2, CD45 D1-D4 titrated 50 nM to 0.05 nM
[2] = molecular target: T1, CD45 domains 1-4 of the extracellular domain; assay: SPR, Biacore 3000, 25 C; Fab captured by anti-mouse F(ab)2, CD45 D1-D4 titrated 50 nM to 0.05 nM

Molecule: Rituximab: anti-CD20, indicated by FDA for Non-Hodgkin Lymphoma and Chronic Lymphocytic Leukaemia; positive control [reference compound]
Rituximab mean (%) cell reduction (Jurkat): 6.52%
Rituximab mean (%) cell reduction (CCRF-SB): 59.87%
Rituximab mean (%) cell reduction (MC116): 98.13%
Rituximab mean (%) cell reduction (Raji): 87.89%
Rituximab mean (%) cell reduction (Ramos): 91.05%
Rituximab mean (%) cell reduction (SU-DHL-4): 79.76%
Rituximab mean (%) cell reduction (SU-DHL-5): 61.26%
Rituximab mean (%) cell reduction (SU-DHL-8): 15.25%
Rituximab mean (%) cell reduction (NU-DUL-1): 87.04%
Rituximab mean (%) cell reduction (OCI-Ly3): 19.05%
Rituximab mean (%) cell reduction (THP-1): 23.12%
Rituximab mean (%) cell reduction (Dakiki): 58.55%

Kd [1]: 61 nM
koff [1]: 0.035 s⁻¹
kon [1]: 570000 M⁻¹ s⁻¹
B1: 4133 rabbit Fab (Fab, V domains shown)
VH: QEQLVESGGGLVQPEGSLTLTCTASGFSFSGNYYMCWVRQAPGKGLEWIGCLYTGSSGSTYYASWAKGRFTISKTSSTTVTLQMTSLTAADTATYFCARDLGYEIDGYGGLWGQGTLVTVSS
VL: AQVLTQTPSPVSAVVGGTVSISCQASQSVYNNNNLSWYQQKPGQPPKLLIYDASKLASGVPSRFKGSGSGTQFTLTISGVQCDDAATYYCLGGYYSSGWYFAFGGGTKVVVKR

Kd [2]: 0.085 nM
koff [2]: 0.00022 s⁻¹
kon [2]: 2.6e+06 M⁻¹ s⁻¹
B2: 6294 mouse Fab (Fab, V domains shown)
VH: EVQLVESGAELARPGASVKMSCKASGYTFTSYTMHWVKQRPGQGLEWIGYINPSSGYTEYNQKFKDKTTLTADKSSSTAYLQLSSLTSEDSAVYYCARVGDGFYPSWLAYWGQGTLVTVSS
VL: DIQMTQSPKFLLVSAGDRVTITCKASQSVRNDVAWYQQKPGQSPKLLIFYASKRYTGVPDRFTGSGYGTDFTFTISTVQAEDLAVYFCQQDYSSPTTFGGGTKLEIK

Source: patent US20230374148A1, “BINDING MOLECULES THAT MULTIMERISE CD45” (UCB BIOPHARMA SRL, priority 2020, published 2023)
